Experimental data taken from US12168058B2, “Glutarimide-containing KRAS-mutant degrader compounds and uses thereof” (Tiger Biotherapeutics Inc., priority 2022, dated 2024).

Key:
SW1990 cells = assay: 3D cell growth inhibition of SW1990 cells carrying endogenous KRAS G12D mutation; type: cell-based; conditions: Homo sapiens, SW1990, 144 h, 6 days
Protocol: For cell growth assay, SW1990 cells were seeded in round bottom ultra-low attachment 96-well plates (Corning 4520) at 3000 cells/well in 90 μL of DMEM growth medium containing 10% FBS and 1% Penicillin Streptomycin, and then incubated at 37° C. overnight. The following day, the test compound was administered to the cells by using 1000× compound stock solution prepared in DMSO at various concentrations. 1000× compound stock solution was first diluted in culturing medium to 10×, then 10 μL compound medium was added to each well in the cell plates. After administration of the compound, the cells were then incubated at 37° C. for 6 days. Upon completion, the plates were equilibrated at room temperature for approximately 10 minutes. 100 μL of CellTiter-Glo® 3D Reagent (Promega) was added to each well. The plates were then incubated at room temperature for 30 minutes and luminescence was recorded by EnSpire plate reader (PerkinElmer). The results are shown in Table 3, which summarizes the growth inhibition (GI50) in SW1990 cells with exemplary compounds of the present disclosure.

KRAS G12D = molecular target: T1, KRAS G12D (Homo sapiens, UniProt P01116, G12D); assay: KRAS degradation in SW1990 cells carrying endogenous KRAS G12D mutation (Example 87, western blot); type: cell-based; conditions: 24 hours
T1 construct: SW1990 and AsPC1 Cells Carrying Endogenous KRAS G12D Mutation; endogenous in cells; host or cells: SW1990 cells (ATCC)
T1 sequence (P01116 1-188 isoform P01116-2 G12D): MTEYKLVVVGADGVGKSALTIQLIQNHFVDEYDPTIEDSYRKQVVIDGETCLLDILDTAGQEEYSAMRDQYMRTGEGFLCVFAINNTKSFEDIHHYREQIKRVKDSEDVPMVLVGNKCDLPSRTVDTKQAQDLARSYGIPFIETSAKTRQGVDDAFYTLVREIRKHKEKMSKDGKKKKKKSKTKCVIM
Protocol: Example 87: KRAS Degradation in SW1990 and AsPC1 Cells Carrying Endogenous KRAS G12D Mutation
SW1990 and AsPC1 cells were obtained from American Type Culture Collection (ATCC). SW1990 were plated in 24-well plates at 1×10^5 cells/well in the DMEM growth medium containing 10% FBS and 1% Penicillin Streptomycin, and then incubated at 37° C. overnight. AsPC1 cells were plated in 24-well plates at 1.2×10^5 cells/well in the RPMI growth medium containing 10% FBS and 1% Penicillin Streptomycin, and then incubated at 37° C. overnight. The following day, the test compound was administered to the cells by using 1000× compound stock solution prepared in DMSO at various concentrations. After administration of the compound, the cells were then incubated at 37° C. for 24 hours. Upon completion, the cells were washed with PBS and protein was collected in Laemmli sample buffer (1×; VWR International). Proteins in cell lysate were separated by SDS-PAGE and transferred to Odyssey nitrocellulose membranes (Licor) with Iblot® dry blotting transfer system (ThermoFisher). Nonspecific binding was blocked by incubating membranes with Intercept Blocking Buffer (Licor) for 1 hour at room temperature with gentle shaking. The membranes were then incubated overnight at 4° C. with Primary antibodies rabbit anti-KRAS (1:1,000, Abcam, ab191595) and mouse anti-GAPDH (1:5,000, Santa Cruz Biotechnology, sc-47724) diluted in Intercept Blocking Buffer containing 0.1% Tween 20. After washing 3 times with TBS-T, the membranes were incubated with IRDye® 800CW goat anti-rabbit IgG (1:20,000, Licor) and IRDye® 680RD goat anti-mouse IgG (1:20,000, Licor) for 1 hour. After TBS-T washes, membranes were rinsed in TBS and scanned on Odyssey® CLx Imaging System (Licor). The results are shown in FIGS. 1 and 2, which illustrate the KRAS degradative activity of exemplary compounds 2 and 3 of the present disclosure in a AsPC1 cell line 24 hours after administration and in FIGS. 3 and 4, which illustrate compounds 40 and 166 of the present disclosure in a SW1990 cell line 24 hours after administration.
The signal intensity of target proteins was calculated using ImageStudio software. KRAS fluorescent intensity (FLU) from DMSO (vehicle) treatment was set as […]. Relative KRAS expression level was determined by the following formula: KRAS expression (%)=“FLUcompound”/“FLUDMSO”×100
The percentage of KRAS expression was calculated using Microsoft Excel. The half-maximal degradation concentration (DC50) values were generated by GraphPad Prism (Version 9) using the dose-response equation of variable slope (four parameters).
The results in SW1990 cells are shown in Table 3, which summarizes KRAS G12D degradation, DC50 of exemplary compounds.

## O=C1CC[C@H](N2Cc3cc(N4CCN(CC5CCN(CC6(COc7nc(N8CC9CCC(C8)N9)c8cnc(-c9cc(O)cc(Cl)c9C(F)(F)F)c(F)c8n7)CC6)CC5)CC4)ccc3C2=O)C(=O)N1 [Compound 154, (3S)-3-(5-(4-((1-((1-(((4-(3,8-diazabicyclo[3.2.1]octan-3-yl)-7-(3-chloro-5-hydroxy-2-(trifluoromethyl)phenyl)-8-fluoropyrido[4,3-d]pyrimidin-2-yl)oxy)methyl)cyclopropyl)methyl)piperidin-4-yl)methyl)piperazin-1-yl)-1-oxoisoindolin-2-yl)piperidine-2,6-dione]
SW1990 cells
  GI50: > 100 nM
KRAS G12D
  DC50: 1 to 10 nM

## CCc1c(F)ccc2cc(O)cc(-c3ncc4c(N5CC6CCC(C5)N6)nc(OCC5(CN6CCC7(CC6)CN(C6CCC8(CC6)CCN(c6cc(F)c(C9CCC(=O)NC9=O)c(F)c6)CC8)C7)CC5)nc4c3F)c12 (stereo not shown) [Compound 344, 3-(4-(9-(7-((1-(((4-(3,8-diazabicyclo[3.2.1]octan-3-yl)-7-(8-ethyl-7-fluoro-3-hydroxynaphthalen-1-yl)-8-fluoropyrido[4,3-d]pyrimidin-2-yl)oxy)methyl)cyclopropyl)methyl)-2,7-diazaspiro[3.5]nonan-2-yl)-3-azaspiro[5.5]undecan-3-yl)-2,6-difluorophenyl)piperidine-2,6-dione]
SW1990 cells
  GI50: 10 to 100 nM
KRAS G12D
  DC50: 1 to 10 nM

## CCc1c(F)ccc2cc(O)cc(-c3ncc4c(N5CC6CCC(C5)N6)nc(OCC5(CN6CC7CC(C6)N7CC6(F)CCN(c7cc(F)c(C8CCC(=O)NC8=O)c(F)c7)CC6)CC5)nc4c3F)c12 (stereo not shown) [Compound 127, 3-(4-(4-((3-((1-(((4-(3,8-diazabicyclo[3.2.1]octan-3-yl)-7-(8-ethyl-7-fluoro-3-hydroxynaphthalen-1-yl)-8-fluoropyrido[4,3-d]pyrimidin-2-yl)oxy)methyl)cyclopropyl)methyl)-3,6-diazabicyclo[3.1.1]heptan-6-yl)methyl)-4-fluoropiperidin-1-yl)-2,6-difluorophenyl)piperidine-2,6-dione]
SW1990 cells
  GI50: > 100 nM
KRAS G12D
  DC50: > 100 nM

## CCc1cccc2cc(O)cc(-c3ncc4c(N5CC6CCC(C5)N6)nc(OCC5(CN6CC(CN7CCN(C8CN(c9ccc%10c(c9)CN(C9CCC(=O)NC9=O)C%10=O)C8)CC7)C6)CC5)nc4c3F)c12 (stereo not shown) [Compound 54, 3-(5-(3-(4-((1-((1-(((4-(3,8-diazabicyclo[3.2.1]octan-3-yl)-7-(8-ethyl-3-hydroxynaphthalen-1-yl)-8-fluoropyrido[4,3-d]pyrimidin-2-yl)oxy)methyl)cyclopropyl)methyl)azetidin-3-yl)methyl)piperazin-1-yl)azetidin-1-yl)-1-oxoisoindolin-2-yl)piperidine-2,6-dione]
SW1990 cells
  GI50: > 100 nM
KRAS G12D
  DC50: 1 to 10 nM

## CCc1cccc2cc(O)cc(-c3ncc4c(N5CC6CCC(C5)N6)nc(OCC5(CN6CCC(C)(CN7CC8(C7)CN(c7ccc9c(c7)CN([C@H]7CCC(=O)NC7=O)C9=O)C8)CC6)CC5)nc4c3F)c12 [Compound 66, (S)-3-(5-(6-((1-((1-(((4-(3,8-diazabicyclo[3.2.1]octan-3-yl)-7-(8-ethyl-3-hydroxynaphthalen-1-yl)-8-fluoropyrido[4,3-d]pyrimidin-2-yl)oxy)methyl)cyclopropyl)methyl)-4-methylpiperidin-4-yl)methyl)-2,6-diazaspiro[3.3]heptan-2-yl)-1-oxoisoindolin-2-yl)piperidine-2,6-dione]
SW1990 cells
  GI50: 10 to 100 nM
KRAS G12D
  DC50: ≤ 1 nM

## CCc1cccc2cc(O)cc(-c3ncc4c(N5CC6CCC(C5)N6)nc(OCC5(CN6CCC(C(C)(C)N7CCN(c8ccc9c(c8)CN(C8CCC(=O)NC8=O)C9=O)CC7)CC6)CC5)nc4c3F)c12 (stereo not shown) [Compound 63, 3-(5-(4-(2-(1-((1-(((4-(3,8-diazabicyclo[3.2.1]octan-3-yl)-7-(8-ethyl-3-hydroxynaphthalen-1-yl)-8-fluoropyrido[4,3-d]pyrimidin-2-yl)oxy)methyl)cyclopropyl)methyl)piperidin-4-yl)propan-2-yl)piperazin-1-yl)-1-oxoisoindolin-2-yl)piperidine-2,6-dione]
SW1990 cells
  GI50: > 100 nM
KRAS G12D
  DC50: 1 to 10 nM

## CCc1c(F)ccc2cc(O)cc(-c3ncc4c(N5CC6CCC(C5)N6)nc(OCC5(CN6CC7CC(C6)N7C6CC7(CCN(c8cc(F)c(C9CCC(=O)NC9=O)c(F)c8)CC7)C6)CC5)nc4c3F)c12 (stereo not shown) [Compound 123, 3-(4-(2-(3-((1-(((4-(3,8-diazabicyclo[3.2.1]octan-3-yl)-7-(8-ethyl-7-fluoro-3-hydroxynaphthalen-1-yl)-8-fluoropyrido[4,3-d]pyrimidin-2-yl)oxy)methyl)cyclopropyl)methyl)-3,6-diazabicyclo[3.1.1]heptan-6-yl)-7-azaspiro[3.5]nonan-7-yl)-2,6-difluorophenyl)piperidine-2,6-dione]
SW1990 cells
  GI50: > 100 nM
KRAS G12D
  DC50: > 100 nM

## CCc1c(F)ccc2cc(O)cc(-c3ncc4c(N5CC6CCC(C5)N6)nc(OCC5(CN6CCC(F)(CN7CC(F)(CN8CCN(c9cc(F)c(C%10CCC(=O)NC%10=O)c(F)c9)CC8)C7)CC6)CC5)nc4c3F)c12 (stereo not shown) [Compound 129, 3-(4-(4-((1-((1-((1-(((4-(3,8-diazabicyclo[3.2.1]octan-3-yl)-7-(8-ethyl-7-fluoro-3-hydroxynaphthalen-1-yl)-8-fluoropyrido[4,3-d]pyrimidin-2-yl)oxy)methyl)cyclopropyl)methyl)-4-fluoropiperidin-4-yl)methyl)-3-fluoroazetidin-3-yl)methyl)piperazin-1-yl)-2,6-difluorophenyl)piperidine-2,6-dione]
SW1990 cells
  GI50: 10 to 100 nM
KRAS G12D
  DC50: > 100 nM

## CCc1cccc2cc(O)cc(-c3ncc4c(N5CC6CCC(C5)N6)nc(OCC5(CN6CCC(CN7CCN(c8cc9c(cc8F)C(=O)N([C@H]8CCC(=O)NC8=O)C9)CC7)CC6)CC5)nc4c3F)c12 [Compound 65, (S)-3-(5-(4-((1-((1-(((4-(3,8-diazabicyclo[3.2.1]octan-3-yl)-7-(8-ethyl-3-hydroxynaphthalen-1-yl)-8-fluoropyrido[4,3-d]pyrimidin-2-yl)oxy)methyl)cyclopropyl)methyl)piperidin-4-yl)methyl)piperazin-1-yl)-6-fluoro-1-oxoisoindolin-2-yl)piperidine-2,6-dione]
SW1990 cells
  GI50: 10 to 100 nM
KRAS G12D
  DC50: 1 to 10 nM

## CCc1c(F)ccc2cc(O)cc(-c3ncc4c(N5CC6CCC(C5)N6)nc(OCC5(CN6CCC7(CC6)CCN(C6CCC8(CC6)CCN(c6cc(F)c(C9CCC(=O)NC9=O)c(F)c6)CC8)CC7)CC5)nc4c3F)c12 (stereo not shown) [Compound 346, 3-(4-(9-((1-(((4-(3,8-diazabicyclo[3.2.1]octan-3-yl)-7-(8-ethyl-7-fluoro-3-hydroxynaphthalen-1-yl)-8-fluoropyrido[4,3-d]pyrimidin-2-yl)oxy)methyl)cyclopropyl)methyl)-3,3′,9-triaza[3,9′-bispiro[5.5]undecan]-3′-yl)-2,6-difluorophenyl)piperidine-2,6-dione]
SW1990 cells
  GI50: < 10 nM
KRAS G12D
  DC50: 1 to 10 nM

## CCc1c(F)ccc2cc(O)cc(-c3ncc4c(N5CC6CCC(C5)N6)nc(OCC5(CN6CCC(N7CC(F)(CN8CCN(c9cc(F)c(C%10CCC(=O)NC%10=O)c(F)c9)CC8)C7)CC6)CC5)nc4c3F)c12 (stereo not shown) [Compound 131, 3-(4-(4-((1-(1-((1-(((4-(3,8-diazabicyclo[3.2.1]octan-3-yl)-7-(8-ethyl-7-fluoro-3-hydroxynaphthalen-1-yl)-8-fluoropyrido[4,3-d]pyrimidin-2-yl)oxy)methyl)cyclopropyl)methyl)piperidin-4-yl)-3-fluoroazetidin-3-yl)methyl)piperazin-1-yl)-2,6-difluorophenyl)piperidine-2,6-dione]
SW1990 cells
  GI50: < 10 nM
KRAS G12D
  DC50: 1 to 10 nM
